In patent US10597388B2, “Pyridazinone herbicides” (FMC CORPORATION, priority 2014, dated 2020):

Key:
Type in all cases: in vivo
[1] = test system: barley, spring (spring barley, Hordeum vulgare); assay: Test D controlled growth environment herbicide test, pre- and postemergence
Outline: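 Rating is visual, 0–100 scale (100 = complete control), made against untreated plants 14–21 d after treatment in controlled growth conditions. Postemergence sprays went onto 1- to 4-leaf plants in peat medium; preemergence sprays onto silt loam after sowing; formulation included a surfactant.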

[2] = test system: waterhemp_RES2 (ALS & HPPD resistant common waterhemp, Amaranthus rudis); assay: Test E greenhouse herbicide test, postemergence
Procedure: (§1) At the same time, plants from these crop and weed species and also waterhemp_RES1, (ALS & Triazine resistant common waterhemp, Amaranthus rudis), and waterhemp_RES2, (ALS & HPPD resistant common waterhemp, Amaranthus rudis) were planted in pots containing Redi-Earth® planting medium (Scotts Company, 14111 Scottslawn Road, Marysville, Ohio 43041) comprising spaghnum peat moss, vermiculite, wetting agent and starter nutrients were treated with postemergence applications of test chemicals formulated in the same manner. Plants ranged in height from 2 to 18 cm for postemergence treatments (1- to 4-leaf stage). Treated plants and controls were maintained in a greenhouse for 14 to 21 d, after which time all species were compared to controls and visually evaluated. Plant response ratings, summarized in Table E, are based on a scale of 0 to 100 where 0 is no effect and 100 is complete control. A dash (-) response means no test result.

[3] = test system: waterhemp_RES1 (ALS & Triazine resistant common waterhemp, Amaranthus rudis); assay: Test E greenhouse herbicide test, postemergence
Procedure: as §1

[4] = test system: wild poinsettia (Euphorbia heterophylla); assay: Test E greenhouse herbicide test, pre- and postemergence
Outline: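 For each species, sown seed in silt loam and young plants (2 to 18 cm) in a peat/vermiculite medium were each treated with compound dissolved in surfactant-containing, non-phytotoxic solvent. After 14 to 21 d under greenhouse conditions, effects were visually rated, 100 meaning complete control.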

[5] = Postemergence, 31 g ai/ha, scale 0 to 100 (0 no effect, 100 complete control)
[6] = Postemergence, 125 g ai/ha, visual rating on scale 0 (no effect) to 100 (complete control), 14 to 21 d
[7] = Postemergence, 250 g ai/ha, scale 0 to 100 (0 no effect, 100 complete control)
[8] = Preemergence, 62 g ai/ha, scale 0 to 100 (0 no effect, 100 complete control)
[9] = Preemergence, 125 g ai/ha, scale 0 to 100 (0 no effect, 100 complete control)
[10] = Preemergence, 250 g ai/ha, scale 0 to 100 (0 no effect, 100 complete control)
[11] = postemergence, 62 g ai/ha, scale 0 to 100, 0 no effect, 100 complete control
[12] = 31 g ai/ha, visual, scale 0 no effect to 100 complete control
[13] = 62 g ai/ha, scale 0 to 100 (0 no effect, 100 complete control)
[14] = 125 g ai/ha, scale 0 to 100 (0 no effect, 100 complete control)
[15] = 250 g ai/ha, scale 0 to 100 (0 no effect, 100 complete control)
[16] = 62 g ai/ha, Postemergence, scale 0 to 100 (0 no effect, 100 complete control)
[17] = 125 g ai/ha, Postemergence, scale 0 to 100 (0 no effect, 100 complete control)
[18] = 250 g ai/ha, Postemergence, scale 0 to 100 (0 no effect, 100 complete control)
[19] = Postemergence, 31 g ai/ha, visual, scale 0 no effect to 100 complete control

| Compound | Plant response rating, Barley, Spring [1, 6] | Plant response rating, Barley, Spring [1, 7] | Plant response rating (scale of 0 to 100), Barley, Spring ([1]; Preemergence, 31 g ai/ha) | Plant response rating, Barley, Spring [1, 8] | Plant response rating, Barley, Spring [1, 9] | Plant response rating, Barley, Spring [1, 11] | Plant response rating, Waterhemp_RES2 [2, 12] | Plant response rating, Waterhemp_RES2 [2, 14] | Plant response rating, Waterhemp_RES2 [2, 15] | Plant response rating, Waterhemp_RES1 [3, 12] | Plant response rating, Waterhemp_RES1 [3, 14] | Plant response rating, Waterhemp_RES1 [3, 15] | Barley, Spring plant response rating [1, 5] | Plant response rating, Barley, Spring [1, 10] | further results |
| --- | --- | --- | --- | --- | --- | --- | --- | --- | --- | --- | --- | --- | --- | --- | --- |
| CC(=O)Oc1c(C)nn(C)c(=O)c1-c1c(C)sc2c(C)cc(C)cc12 [Compound 27] | 5 | 10 | 0 | 0 | 0 | 0 | – | – | – | – | – | – | – | – | Plant response rating, Barley, Spring [1, 5]: 0; Barley, Spring plant response rating [1, 10]: 0 |
| COc1nn(C)c(=O)c(-c2c(C)ccc3ccccc23)c1OC(=O)OC(C)C [Compound 36] | 0 | 10 | 0 | 0 | 0 | 0 | – | – | – | – | – | – | – | – | Plant response rating, Barley, Spring [1, 5]: 0; Barley, Spring plant response rating [1, 10]: 0 |
| CCC(=O)Oc1c(C)nn(C)c(=O)c1-c1c(C)sc2ccc(C)cc12 [Compound 42] | 5 | 10 | 0 | 0 | 0 | 0 | 60 | 70 | 80 | 75 | 70 | 98 | – | – | Plant response rating, Waterhemp_RES2 [2, 13]: 65; Plant response rating, Waterhemp_RES1 [3, 13]: 75; Plant response rating, Barley, Spring [1, 5]: 0; Barley, Spring plant response rating [1, 10]: 5 |
| Cc1ccc(-c2c(O)c(Br)nn(C)c2=O)c2ccccc12 [Compound 52] | 5 | 0 | 0 | 0 | 0 | 0 | – | – | – | – | – | – | 0 | 0 | – |
| COc1nn(C)c(=O)c(-c2c(C)ccc3ccccc23)c1O [Compound 54] | 0 | 10 | 0 | 0 | 0 | 0 | – | – | – | – | – | – | 0 | 5 | – |
| Cc1ccc2ccccc2c1-c1c(O)c(C)nn(C)c1=O [Compound 59] | 40 | 60 | 5 | 25 | 40 | 30 | – | – | – | – | – | – | 25 | 60 | – |
| Cc1ccc2ccc(C)c(-c3c(O)c(C)nn(C)c3=O)c2c1 [Compound 60] | 40 | 50 | 5 | 10 | 45 | 25 | – | – | – | – | – | – | 15 | 60 | – |
| Cc1cc(C)c2sc(C)c(-c3c(OC(=O)OC(C)C)c(C)nn(C)c3=O)c2c1 [Compound 67] | 10 | 20 | 0 | 0 | 0 | 5 | – | – | – | – | – | – | 0 | 0 | – |
| CCOC(=O)Oc1c(C)nn(C)c(=O)c1-c1c(C)ccc2ccccc12 [Compound 73] | 30 | 40 | 0 | 10 | 0 | 25 | – | – | – | – | – | – | 10 | 60 | – |
| CCOC(=O)Oc1c(C)nn(C)c(=O)c1-c1c(C)sc2c(C)cc(C)cc12 [Compound 83] | 5 | 10 | 0 | 0 | 0 | 5 | 30 | 40 | 50 | 70 | 80 | 70 | 0 | 5 | – |
| Cc1cc(C)c2sc(C)c(-c3c(OC(=O)OCCCl)c(C)nn(C)c3=O)c2c1 [Compound 85] | 15 | 20 | 0 | 0 | 0 | 0 | 40 | 40 | 50 | 80 | 75 | 80 | 0 | 5 | – |
| C#CCOC(=O)Oc1c(C)nn(C)c(=O)c1-c1c(C)sc2ccc(C)cc12 [Compound 87] | 0 | 5 | 0 | 0 | 0 | 0 | – | – | – | – | – | – | 0 | 5 | Plant response rating, Poinsettia, Wild ([4]; 62 g ai/ha, Preemergence, scale 0 to 100 (0 no effect, 100 complete control)): 15; Plant response rating, Poinsettia, Wild ([4]; 125 g ai/ha, Preemergence, scale 0 to 100 (0 no effect, 100 complete control)): 15; Plant response rating, Poinsettia, Wild ([4]; Preemergence, 31 g ai/ha, scale 0 to 100, 0 no effect, 100 complete control): 0; Plant response rating, Poinsettia, Wild ([4]; Preemergence, 250 g ai/ha, visual, scale 0 no effect to 100 complete control): 20 |
| COc1nn(C)c(=O)c(-c2c(C)sc3ccc(Cl)cc23)c1O [Compound 100] | – | – | – | – | – | – | 50 | 65 | 70 | 80 | 85 | 90 | – | – | Plant response rating, Poinsettia, Wild [4, 16]: 0; Plant response rating, Poinsettia, Wild [4, 17]: 10; Plant response rating, Poinsettia, Wild [4, 18]: 35; Plant response rating, Poinsettia, Wild [4, 19]: 0 |
| Cc1nn(C)c(=O)c(-c2c(C)sc3ccc(Cl)cc23)c1O [Compound 104] | 10 | 15 | 0 | 0 | 5 | 10 | – | – | – | – | – | – | 0 | 15 | – |
| CSCC(=O)Oc1c(C)nn(C)c(=O)c1-c1cccc2ccccc12 [Compound 171] | – | – | – | – | – | – | 15 | 40 | 60 | 50 | 75 | 90 | – | – | Plant response rating, Poinsettia, Wild [4, 16]: 30; Plant response rating, Poinsettia, Wild [4, 17]: 40; Plant response rating, Poinsettia, Wild [4, 18]: 80; Plant response rating, Poinsettia, Wild [4, 19]: 25 |
